What all share (assay): inhibition of tumour cell growth, NCI panel, 48 h
In experiment [1] the test system is RPMI-8226 leukemia.
In experiment [2] the test system is COLO 205 colon.
In experiment [3] the test system is A549 NSCLC.
In experiment [4] the test system is NCI-H226 lung.
Experiment [5] has as its system SN12C renal.
Experiment [6] concerns LOX IMVI melanoma.
Experiment [7] has as its system HOP-92 NSCLC.
Experiment [8] deals with HL-60(TB) leukemia.
The subject of experiment [9] is NCI-H23 lung.
The subject of experiment [10] is NCI-H460 lung.

Values joined by “and” are separate entries in the source; they are usually repeats but may differ in a detail not shown here. Equal entries are not always repeated.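 Growth conditions: 96-well plates. Treatment: test compound, 48 hours, 5 concentrations. Analysis: linear interpolation between bracketing concentrations; unreached endpoints set to highest concentration. GI50 is the concentration that inhibits growth by half. TGI marks complete inhibition of growth.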

From PubChem BioAssay (NCI) come the findings set out here.

Take `CN(C)c1ccc(N=C2C=CC(=O)c3ccccc32)cc1`: the GI50 is 2.92 µM in [1]; 2.06 µM in experiment [2]; 1.82 µM in [3]; 18.2 µM in experiment [4]; 2.54 µM in experiment [5]; 1.78 µM in [6]. The GI50 in experiment [7] is 5.06 µM; in experiment [8], 2.15 µM; in experiment [9], 2.41 µM; in experiment [10], 1.98 µM. The TGI came to 19.7 µM in experiment [1]; 4.15 µM in [2]; 3.89 µM in [3]; 54 µM in [4]; 9.28 µM in [5]; 4.13 µM in experiment [6]. In addition, the TGI was 18.7 µM in [7], 4.52 µM in experiment [8], 8.04 µM in experiment [9] and 4.86 µM in experiment [10].
Turning to `Cc1ccc2nc(NC(=O)/C(=N\NC(=S)NN)C3C(=O)NC(=S)NC3=O)sc2c1`, the TGI in experiment [1], in [2], in experiment [3], in experiment [4], in experiment [5] and in [6] was more than 100 µM throughout. Also, the TGI in experiment [7], in experiment [8], in experiment [9] and in [10] was more than 100 µM throughout.
On to `Nc1ncnc2c1ccn2[C@@H]1O[C@H]([C@H](O)c2ccc(Cl)c(F)c2)[C@@H](O)[C@H]1O`, for which the GI50 was more than 100 µM in experiment [1]; more than 100 µM in [2]; more than 100 µM in experiment [3]; 34.5 µM in experiment [4]; more than 100 µM in experiment [5]; more than 100 µM in experiment [6]. For the same molecule, the GI50 in experiment [7], in experiment [8], in [9] and in experiment [10] was more than 100 µM throughout. Also, the TGI in [1], in [2], in experiment [3], in [4], in experiment [5] and in experiment [6] was more than 100 µM throughout. For the same molecule, the TGI in experiment [7], in experiment [8], in experiment [9] and in [10] was more than 100 µM each time.
With `[CH3][Sn]([CH3])([CH3])[O][N+](=O)[O-]`, the GI50 is 4.98 µM in [1]; more than 10 µM in experiment [2]; more than 10 µM in experiment [3]; 3.5 µM in experiment [4]; 1.78 µM in experiment [5]; 2.52 µM in [6]. The GI50 was 3.39 µM in experiment [7], 4.03 µM in experiment [8], 5.02 µM in experiment [9] and 8.25 µM in [10]. For the same molecule, the TGI in experiment [1] was more than 10 µM; in experiment [2], more than 10 µM; in [3] it was more than 10 µM; in [4], 7.39 µM; in experiment [5], 4.11 µM; in [6], 6.63 µM. Also, the TGI in experiment [7], in [8], in [9] and in experiment [10] was more than 10 µM in each case.
On to `Nc1ccc(Sc2c3ccccc3nc3ccccc23)cc1`, for which the TGI in experiment [1] is 17.4 µM; in experiment [2] it was 37.6 µM; in experiment [3] it was more than 100 µM; in experiment [4], 58.4 µM; in experiment [5], 36.1 µM; in experiment [6], 13.9 µM. Further, the TGI was more than 38 µM in [7], 10.7 µM in experiment [8], 36.7 µM in experiment [9] and 49.5 µM in experiment [10].
In the case of `C[C@@H](Oc1cc(-n2cnc3ccc(OC[C@@H](O)CO)cc32)sc1C(N)=O)c1ccccc1Cl`, the GI50 in experiment [1] was 1.53 µM; in experiment [2] it was 0.0743 µM; in experiment [3] it was 0.889 µM; in experiment [4], 2.82 µM; in experiment [5] it was 1.08 µM; in [6], 0.0931 µM. The GI50 in [7] was 0.765 µM; in experiment [8] it was 0.0684 µM; in experiment [9] it was 0.14 µM; in [10] it was 0.227 µM. The TGI in [1], in experiment [2], in experiment [3], in experiment [4], in experiment [5] and in experiment [6] was more than 25 µM throughout. Moreover, the TGI in [7] is more than 16.4 µM; in [8] it was 0.869 µM; in experiment [9], more than 25 µM; in experiment [10] it was more than 25 µM.
Take `Cc1ccc(S(=O)(=O)N2CCc3ccc(O)c4c3C2Cc2ccc3c(c2-4)OCO3)cc1` (stereo not drawn): the GI50 in experiment [1] was 0.959 µM; in experiment [2], 5.08 µM; in experiment [3] it was 0.808 µM; in experiment [4] it was 4.71 µM; in [5] it was 2.32 µM; in experiment [6], 0.635 µM. The GI50 is 0.417 µM in experiment [7], 0.398 µM in experiment [8], 0.592 µM in experiment [9] and 0.539 µM in experiment [10]. The TGI is 5.08 µM in experiment [1]; 18.7 µM in experiment [2]; 12.4 µM in experiment [3]; 34.3 µM in [4]; more than 40 µM in experiment [5]; 4.68 µM in experiment [6]. For the same molecule, the TGI in [7] was 3.51 µM; in experiment [8], 5.56 µM; in experiment [9], 5.25 µM; in experiment [10], 7.53 µM.
As for `COc1c2c(cc3c1C(=O)Cc1ccc4c(c1CN(C)CC3)OCO4)OCO2`, the TGI in experiment [1], in [2], in experiment [3], in [4], in experiment [5] and in experiment [6] was more than 100 µM each time. The TGI in experiment [7], in [8], in [9] and in experiment [10] was more than 100 µM throughout.
As for `Cc1ccc(OCC2OC(n3cnc4c(Br)nc(Br)nc43)CC2Oc2ccc(C)cc2)cc1` (stereo not drawn), the GI50 is 7.52 µM in experiment [1]; 11.4 µM in [2]; 1.63 µM in experiment [4]; 9.93 µM in [5]; 1.42 µM in experiment [6]; 1.16 µM in experiment [7]. Moreover, the GI50 in [9] was 6.1 µM; in experiment [10], 1.86 µM and 10.7 µM. For the same molecule, the TGI is 28.7 µM and > 71.3 µM in [1]; 25.3 µM and 13.1 µM in [2]; 30 µM and > 41.9 µM in experiment [3]; 33 µM and 3.77 µM in experiment [4]; 22.9 µM and 14.2 µM in experiment [5]; 2.47 µM and 3.67 µM in [6]. Moreover, the TGI is 2.55 µM and 5.36 µM in experiment [7]; 21.8 µM in [8]; 16.7 µM and 15.4 µM in [9]; 6.07 µM and 28 µM in experiment [10].
